# Patent US8084261B2, “Method for predicting responsiveness to a pharmaceutical therapy for obesity” (priority 2007, dated 2011)
# What was measured:
# TRL V6 = experiment: Cross therapeutic target rat study: reduction of circulating TRL V6 concentration after an acute dose (NMR LipoProfile); format: in vivo, DIO-LE rats; settings: for Reduction in TRL V6 Response T1-(ie 2 hrs) / Reduction in TRL V6 Response T2-(ie 5 hrs) / Reduction in TRL V6 Response T3-(ie 18 hrs): DIO-LE rats on high fat chow, acute dose as in the Dose column; for Reduction in TRL V6 Response T1-(ie 2 hrs): T1 (ie 2 hrs) post dose; for Reduction in TRL V6 Response T2-(ie 5 hrs): T2 (ie 5 hrs) post dose; for Reduction in TRL V6 Response T3-(ie 18 hrs): T3 (ie 18 hrs) post dose; for reduction of circulating concentration of TRL V6 / time by which TRL V6 plasma concentration returns to baseline / reduction of circulating TRL V6 concentration: SNDRI 3 mg/kg; for time by which TRL V6 plasma concentration returns to baseline: post dose
# Protocol: As a typical example, whole blood samples are collected into 2 ml EDTA blood collection tubes, inverted several times to mix well, and placed on ice. The samples are then centrifuged at approximately 3000 rpm for 10-15 minutes at 4° C. Upon completion of centrifugation, the tube is placed on ice and the plasma is drawn off The plasma is place into a polypropylene tube and kept at 4° C. until analysis. Samples may be analyzed at any time up to about 4 days after collection. Samples are analyzed for TRL V6 response, as for example by NMR plasma lipoprotein analysis, as for example, the NMR LipoProfile®, the NMR LipoProfile®-II or the NMR LipoProfile®-III lipoprotein tests provided by LipoScience, Inc. of Raleigh, N.C.
# The ability of investigational weight loss pharmaceutical agents to reduce the TRL V6 concentration in rats is shown with three compounds targeting different mechanisms of action including a known potent and selective 5-HT2C receptor agonist, a known potent and selective CB-1 receptor antagonist/inverse agonist, and a potent SNDRI (sibutramine) Each of these compounds are known to induce weight loss in rats and thus the biomarker of reduction in TRL V6 concentration correlates to the investigational weight loss pharmaceutical agents' ability to induce weight loss. Conversely, an opiate antagonist, (naltrexone) which is known to be ineffective in inducing weight loss in rats or in overweight and obese human subjects (Malcolm R et al., Int. J. Obes. 1985; 9(5):347-53), is shown to not reduce the TRL V6 concentration in rats, again correlating the biomarker of reduction in TRL V6 concentration to the investigational weight loss pharmaceutical agents' ability to induce weight loss.
# DIO-LE rats maintained on a high fat chow are administered either a vehicle dose or an acute dose of test compound. At specified time points post dose, animals are sacrificed and blood is collected in blood sample tubes containing EDTA and processed essentially as described above. Samples are analyzed by NMR LipoProfile® lipoprotein sub-particle test with report of all particle subtypes (specifically the TRL V6 concentration or particle number).
# [1] = system: large triglyceride rich lipoprotein subclasses; experiment: Human study with sibutramine: TRL response (AUC 5-11 hr) to fat load versus placebo, NMR LipoProfile; format: in vivo
# Protocol: Note that where TRL V6 response can be equated with the response of a combination of subtypes, it is because the magnitude of the change in signal, which is due to the change of TRL V6 signal, is sufficiently large compared to the base line signal, to be a significant difference (i.e. the signal from TRL V6 in the base line signal dominates the combined signal so that a change in TRL V6 is reliably detected).
# A SNDRI (sibutramine) known to be able to induce weight loss in humans is tested to correlate its ability to reduce TRL V6 response plasma concentrations and V-TRL response in humans in an exploratory biomarker study employing a single-blind, crossover design, comparing sibutramine and placebo in hypertriglyceridemic and overweight and obese but otherwise healthy subjects.
# Three cohorts containing 6 subjects each, undergo three periods during the study. Subjects are fasted overnight and two fasting blood draws are obtained, followed by breakfast at approximately 07:00 hours. Placebo or sibutramine is administered at approximately 10:00 hours. Blood sampling is begun approximately 1 hr. after the start of breakfast and continues at hourly intervals for 7 hr., and then every 2 hr. for the next 10 hr. A lunch according to Example fat load 2 is served at approximately 12:00 hours (approximately 60 to 65 g of fat). No other food is permitted until 12 hr. post fat load administration. Subjects are released after the last blood sampling for a 4 to 8-day washout period before return for the second testing period of the study. After the washout period, subjects are again fasted overnight. The procedures are then repeated as in the first testing period of the study except that each subject crosses over to receive the alternate treatment, sibutramine or placebo. Blood samples are collected, processed and analyzed essentially as described in Example 1 above.
# TRL V6 responses and V-TRL responses are observed during the period from 5 to 11 hr. post fat load. […] In most subjects, the administration of sibutramine reduced the magnitude of the TRL V6 response and V-TRL response compared to their placebo-treated responses. Thus the reduction of the TRL V6 response and V-TRL response induced by the SNDRI correlates with the SNDRI known ability to induce weight loss in humans.
# [2] = rats, 2 hr. post dose, 5-HT2C agonist 10 mg/kg, naltrexone 10 mg/kg oral
# [3] = rats, 5-HT2C agonist 10 mg/kg, CB-1 antagonist 0.3 mg/kg, naltrexone 10 mg/kg oral
# [4] = rats, 5 hr. post dose, CB-1 antagonist 0.3 mg/kg
# [5] = AUC 5-11 hr. time points from lipid load
# [6] = AUC 5-11 hr. time points from lipid load, chylomicrons
# [7] = versus placebo, 5-11 hr. post fat load
smiles,measurement,setting,value
"O=C1CC[C@@]2(O)[C@H]3Cc4ccc(O)c5c4[C@@]2(CCN3CC2CC2)[C@H]1O5 [Naltrexone, naltrexone]",Reduction in TRL V6 Response T1-(ie 2 hrs),TRL V6,30%
same,Reduction in TRL V6 Response T2-(ie 5 hrs),TRL V6,0%
same,Reduction in TRL V6 Response T3-(ie 18 hrs),TRL V6,0%
same,TRL V6 level at 18 hr. post dose (in words),"TRL V6; rats, 10 mg/kg oral, 18 hr. post dose",unchanged
same,effect on circulating TRL V6 levels (in words),"TRL V6; rats, 10 mg/kg orally administrated dose",minimal effect
same,reduction of circulating concentration of TRL V6,TRL V6; [2],30%
same,time by which TRL V6 plasma concentration returns to baseline,TRL V6; [3],5 h
"CC(C)CC(N(C)C)C1(c2ccc(Cl)cc2)CCC1 (stereo not drawn) [Sibutramine, sibutramine]",Reduction in TRL V6 Response T1-(ie 2 hrs),TRL V6,78%
same,Reduction in TRL V6 Response T2-(ie 5 hrs),TRL V6,78%
same,Reduction in TRL V6 Response T3-(ie 18 hrs),TRL V6,0%
same,reduction of circulating concentration of TRL V6,TRL V6; [2],about 78%
same,reduction of circulating TRL V6 concentration,"TRL V6; rats, 2 hr. post dose",about 78%
same,reduction of circulating TRL V6 concentration,TRL V6; [4],about 78%
same,reduction of circulating concentration of TRL V6,TRL V6; [4],about 78%
same,time by which TRL V6 plasma concentration returns to baseline,TRL V6; [3],about 18 hr
same,decrease in the TRL V6 response versus placebo,"[1]; AUC 5-11 hr. post fat load, mixed effects model, average of treated arms",about 28%
same,"Geometric LS Mean of AUC, analyte TRL V5",[1]; [5],222.34
same,"Geometric LS Mean of AUC, analyte TRL V6",[1]; [5],119.35
same,"Geometric LS Mean of AUC, analytes TRL V6 + Chy",[1]; [5],205.0
same,"Geometric LS Mean of AUC, analytes TRL V6 + TRL V5",[1]; [5],364.08
same,"Geometric LS Mean of AUC, analytes TRL V6 + V5 + Chy",[1]; [5],458.04
same,"Sibutramine/Placebo Ratio of AUC, analyte TRL V5",[1]; [5],1.10
same,"Sibutramine/Placebo Ratio of AUC, analyte TRL V6",[1]; [5],0.73
same,"Sibutramine/Placebo Ratio of AUC, analytes TRL V6 + Chy",[1]; [5],0.81
same,"Sibutramine/Placebo Ratio of AUC, analytes TRL V6 + TRL V5",[1]; [5],0.88
same,"Sibutramine/Placebo Ratio of AUC, analytes TRL V6 + V5 + Chy",[1]; [5],0.89
same,"Geometric LS Mean of AUC, analyte Chy",[1]; [6],81.11
same,"Sibutramine/Placebo Ratio of AUC, analyte Chy",[1]; [6],0.98
same,change in mean V-TRL response (in words),[1]; [7],statistically significant decrease
same,"change in plasma concentrations of TRL V1, V2, V3, V4, or V5 subtypes (in words)",[1]; [7],does not show a significant change
